Values of other authors as cited in patent publication US6107059A, “Peptide library and screening method” (Affymax Technologies N.V., priority 1992, dated 2000).

Biological target: streptavidin (Streptomyces avidinii, UniProt P22629)
Conditions: comparison in words, no number given

Sequence of streptavidin (P22629 25-183): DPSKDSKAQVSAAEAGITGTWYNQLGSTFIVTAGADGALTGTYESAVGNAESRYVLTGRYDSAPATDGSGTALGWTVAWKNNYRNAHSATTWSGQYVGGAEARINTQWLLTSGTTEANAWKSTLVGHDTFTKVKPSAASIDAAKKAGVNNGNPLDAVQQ

**Q.** With `N=C1N[C@H]2[C@H](CS[C@H]2CCCCC(=O)O)N1` [iminobiotin] as the compound, how does the “Kd for streptavidin, compared with biotin” value read?
**A.** much lower Kd
